Data as given in ChEMBL document CHEMBL2429721, “Novel 2,6-bis(4-methoxyphenyl)-1-methylpiperidin-4-one oxime esters: synthesis and a new insight into their antioxidant and antimicrobial potential” (Med Chem Res, 2013).

Experiments:
Assay type in all cases: functional
Candida albicans [1] = assay: Antifungal activity against Candida albicans MTCC 3017 assessed as growth inhibition at 1000 ug/mL after 72 hrs by agar well plate method; settings: MTCC 3017, 72 h, read-out: DIZ
Staphylococcus aureus [2] = assay: Antibacterial activity against Staphylococcus aureus ATCC 25923 assessed as growth inhibition at 500 ug/mL after 24 hrs by agar well plate method; settings: ATCC 25923, 24 h, read-out: DIZ
Escherichia coli [3] = assay: Antibacterial activity against Escherichia coli ATCC 25922 assessed as growth inhibition at 500 ug/mL after 24 hrs by agar well plate method; settings: ATCC 25922, 24 h, read-out: DIZ
Pseudomonas aeruginosa [4] = assay: Antibacterial activity against Pseudomonas aeruginosa ATCC 27853 assessed as growth inhibition at 1000 ug/mL after 24 hrs by agar well plate method; settings: ATCC 27853, 24 h, read-out: DIZ
[5] = Antifungal activity against Chrysosporium keratinophilum MTCC 2827 assessed as growth inhibition at 1000 ug/mL after 72 hrs by agar well plate method
Aspergillus flavus [6] = assay: Antifungal activity against Aspergillus flavus MTCC 3306 assessed as growth inhibition at 1000 ug/mL after 72 hrs by agar well plate method; settings: MTCC 3306, 72 h, read-out: DIZ
Candida albicans [7] = assay: Antifungal activity against Candida albicans MTCC 3017 assessed as growth inhibition at 500 ug/mL after 72 hrs by agar well plate method; settings: MTCC 3017, 72 h, read-out: DIZ
[8] = test system: Radical scavenging activity; assay: Antioxidant activity assessed as DPPH free radical scavenging activity after 20 mins by UV-visible spectrophotometric analysis
Staphylococcus aureus [9] = assay: Antibacterial activity against Staphylococcus aureus ATCC 25923 assessed as growth inhibition at 1000 ug/mL after 24 hrs by agar well plate method; settings: ATCC 25923, 24 h, read-out: DIZ
[10] = Antioxidant activity assessed as ABTS free radical scavenging activity after 30 mins
Aspergillus flavus [11] = assay: Antifungal activity against Aspergillus flavus MTCC 3306 assessed as growth inhibition at 500 ug/mL after 72 hrs by agar well plate method; settings: MTCC 3306, 72 h, read-out: DIZ
[12] = Antifungal activity against Chrysosporium keratinophilum MTCC 2827 assessed as growth inhibition at 500 ug/mL after 72 hrs by agar well plate method
Pseudomonas aeruginosa [13] = assay: Antibacterial activity against Pseudomonas aeruginosa ATCC 27853 assessed as growth inhibition at 500 ug/mL after 24 hrs by agar well plate method; settings: ATCC 27853, 24 h, read-out: DIZ
[14] = Antioxidant activity assessed as cupric ion reducing activity at 10 uM after 30 mins by CUPRAC assay
[15] = Antioxidant activity assessed as ferric ion reducing activity at 10 uM after 20 mins by FRAP assay
Escherichia coli [16] = assay: Antibacterial activity against Escherichia coli ATCC 25922 assessed as growth inhibition at 1000 ug/mL after 24 hrs by agar well plate method; settings: ATCC 25922, 24 h, read-out: DIZ

| SMILES | zone of inhibition at 1000 µg/mL (Candida albicans [1]) [mm] | zone of inhibition at 500 µg/mL (Staphylococcus aureus [2]) [mm] | zone of inhibition at 500 µg/mL (Escherichia coli [3]) [mm] | zone of inhibition at 1000 µg/mL (Pseudomonas aeruginosa [4]) [mm] | inhibition zone (IZ) [5] [mm] | zone of inhibition at 1000 µg/mL (Aspergillus flavus [6]) [mm] | zone of inhibition at 500 µg/mL (Candida albicans [7]) [mm] | IC50 [8] [µM] | zone of inhibition at 1000 µg/mL (Staphylococcus aureus [9]) [mm] | IC50 [10] [µM] | zone of inhibition at 500 µg/mL (Aspergillus flavus [11]) [mm] | inhibition zone (IZ) [12] [mm] | zone of inhibition at 500 µg/mL (Pseudomonas aeruginosa [13]) [mm] | Activity [14] | Activity [15] | zone of inhibition at 1000 µg/mL (Escherichia coli [16]) [mm] |
| --- | --- | --- | --- | --- | --- | --- | --- | --- | --- | --- | --- | --- | --- | --- | --- | --- |
| COc1ccc(C2CC(=NOC(=O)c3cccc(Cl)c3)CC(c3ccc(OC)cc3)N2C)cc1 (stereo not drawn) | 10 | 7 | 7 | 11 | 7 | 7 | 7 | 186 | 9 | 136 | 6 | 5 | 8 | 0.179 | 0.243 | 12 |
| COc1ccc(C2CC(=NOC(=O)c3ccc([N+](=O)[O-])cc3)CC(c3ccc(OC)cc3)N2C)cc1 (stereo not drawn) | 6 | 3 | 3 | 8 | 4 | 3 | 7 | 120 | 7 | 280 | 2 | 3 | 5 | 0.157 | 0.216 | 7 |
| COc1ccc(C(=O)ON=C2CC(c3ccc(OC)cc3)N(C)C(c3ccc(OC)cc3)C2)cc1 (stereo not drawn) | 7 | 1 | 1 | 4 | 3 | 5 | 5 | 32 | 3 | 68 | 4 | 3 | 3 | 0.245 | 0.31 | 2 |
| COc1ccc(C2CC(=NOC(=O)c3ccc(OC)cc3OC)CC(c3ccc(OC)cc3)N2C)cc1 (stereo not drawn) | 6 | 2 | 3 | 6 | 4 | 4 | 4 | 56 | 4 | 80 | 3 | 3 | 6 | 0.236 | 0.296 | 5 |
| COc1ccc(C2CC(=NOC(=O)c3ccc(F)cc3)CC(c3ccc(OC)cc3)N2C)cc1 (stereo not drawn) | 16 | 9 | 12 | 19 | 9 | 12 | 10 | 86 | 13 | 152 | 10 | 7 | 15 | 0.163 | 0.236 | 17 |
| COc1ccc(C2CC(=NOC(=O)c3ccc(Br)cc3)CC(c3ccc(OC)cc3)N2C)cc1 (stereo not drawn) | 9 | 6 | 6 | 9 | 6 | 5 | 8 | 92 | 8 | 121 | 4 | 4 | 7 | 0.215 | 0.265 | 10 |
| COc1ccc(C2CC(=NOC(=O)c3ccc(Cl)cc3)CC(c3ccc(OC)cc3)N2C)cc1 (stereo not drawn) | 11 | 8 | 10 | 16 | 8 | 8 | 10 | 98 | 12 | 135 | 5 | 7 | 12 | 0.192 | 0.258 | 16 |
| COc1ccc(C2CC(=NOC(=O)c3ccccc3OC(C)=O)CC(c3ccc(OC)cc3)N2C)cc1 (stereo not drawn) | 4 | 2 | 2 | 5 | 3 | 2 | 5 | 132 | 5 | 350 | 1 | 2 | 4 | 0.131 | 0.179 | 4 |
